Test results as given in patent publication US5043268A, “Substrates and inhibitors for prenyl cysteine methyltransferase enzymes” (The Trustees of Princeton University, priority 1990, dated 1991).

Molecular target: prenyl cysteine methyltransferase (Bos taurus, UniProt A0AAA9SD88)
Experiment: Prenyl cysteine methyltransferase assay (3H-methyl transfer from S-adenosylmethionine to AFC, vapor-phase equilibrium)
Type: biochemical
Conditions: 5.0 μM (3H-methyl)-S-adenosylmethionine, 83,000×g pellet of bovine brain, 37° C., pH 7.9
Protocol: To a putative source of prenyl cysteine methyl transferase enzyme is added 50 μM of N-acetyl-S-farnesyl cysteine ("AFC") and 5.0 μM (^3 H-methyl)-S-adenosylmethionine (specific activity 16,000 cpm/pmol) in 100 mM tris-HCl, 1 mM EDTA, 1 mM DTT, pH 7.9 in a final volume of 150 μL. After heating the mixture at 37° C. for 5 to 25 minutes, 25 μL of the mixture is removed and added to 250 μL of heptane. The mixture is immediately vortexed to extract N-acetyl-S-farnesyl cysteine methyl ester into the organic phase. The mixture then is centrifuged for 30 seconds, and placed in a dry ice/acetone bath to quench the reaction. The heptane layer (200 μL) is removed and added to a 1.5 mL capless Eppendorf microcentrifuge tube. The heptane is evaporated in a Speedvac, and 25 μL of 1M sodium hydroxide is added to the remaining residue. The ^3 H-methanol produced from the hydrolysis of the ^3 H-methylesters is assayed by the vapor-phase equilibrium procedure as described in Stock, J. B., et al. (1984) Methods Enzymology, 106, 310-321 which is incorporated herein by reference.
A sample of 0.003 grams of 83,000×g. pellet from homogenized bovine brain after previous removal of the 14,000×g. pellet was subjected to the foregoing assay.

prenyl cysteine methyltransferase, sequence (A0AAA9SD88 1-284): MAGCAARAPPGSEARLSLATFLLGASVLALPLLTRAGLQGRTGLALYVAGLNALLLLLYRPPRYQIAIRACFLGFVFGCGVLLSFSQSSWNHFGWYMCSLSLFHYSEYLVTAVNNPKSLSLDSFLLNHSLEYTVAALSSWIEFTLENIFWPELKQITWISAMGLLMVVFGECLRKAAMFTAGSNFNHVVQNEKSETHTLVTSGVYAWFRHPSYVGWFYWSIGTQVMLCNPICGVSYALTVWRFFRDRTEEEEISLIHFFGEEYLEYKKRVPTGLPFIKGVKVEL

- cpm (w/50 μM AFC) (5 min): 199.5 cpm
- cpm (w/50 μM AFC) (10 min): 343.5 cpm
- cpm (w/50 μM AFC) (15 min): 393.5 cpm
- cpm (w/50 μM AFC) (20 min): 543.0 cpm
- cpm (w/50 μM AFC) (25 min): 616.0 cpm
SMILES: CC(=O)N[C@@H](CSC/C=C(\C)CC/C=C(\C)CCC=C(C)C)C(=O)O [AFC, N-Acetyl, S-trans,trans-farnesyl-L-cysteine]
